Measured values published in patent US8575145B2, “Triazolopyridine compounds as PIM kinase inhibitors” (Array BioPharma Inc., priority 2008, dated 2013).
Counter-ions that a name gives are not always drawn. Like-named read-outs stand apart in the source and are kept apart here.

What was measured:
PIM-1 = PIM-1 (Homo sapiens (Human), UniProt P11309); test: PIM-1 Enzyme Assay; assay type: biochemical
How it was run: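 Radiometric kinase assay in 20 mM K+MOPS pH 7.4, 10 mM MgCl2, 0.005% Tween-20, 1 mM DTT, 2% DMSO final; 60 min at 22° C, stopped with H3PO4, product captured on P81 filter and counted by scintillation. IC50 from 4-parameter logistic fit of percent of control.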

[1] = target: GST-tagged recombinant full-length human PIM-2 (Homo sapiens (Human), UniProt Q9P1W9); test: PIM-2 Enzyme Assay
Sequence of GST-tagged recombinant full-length human PIM-2 (Q9P1W9 whole entry): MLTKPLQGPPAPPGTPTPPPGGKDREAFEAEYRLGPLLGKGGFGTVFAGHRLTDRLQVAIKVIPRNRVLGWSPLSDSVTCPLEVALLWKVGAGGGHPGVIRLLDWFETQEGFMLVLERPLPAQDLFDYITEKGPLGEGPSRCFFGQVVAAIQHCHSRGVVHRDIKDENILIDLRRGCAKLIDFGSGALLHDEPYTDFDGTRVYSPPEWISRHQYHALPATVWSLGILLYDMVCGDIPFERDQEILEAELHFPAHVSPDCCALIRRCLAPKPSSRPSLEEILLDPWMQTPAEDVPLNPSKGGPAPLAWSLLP

recombinant rat PIM-3 = recombinant rat PIM-3 (Rattus norvegicus (Rat), UniProt O70444); test: PIM-3 Enzyme Assay; details: 30 μM ATP, 0.5 nM PIM-3
Description: The amount of radiolabeled product is then measured by liquid scintillation counting. The final buffer conditions were as follows: 20 mM K^+MOPS, pH 7.4, 10 mM MgCl2, 0.005% Tween-20, 1 mM DTT. […] Incubations were carried out for 60 min at 22° C. and quenched with 75 μL of 200 mM H3PO4, filtered through a Whatman P81 plate and washed (1×200 μL and 5×100 μL ) with 200 mM H3PO4. Liquid scintillation cocktail (50 μL ) was then added per well, and the plate was counted for 30 s/well using a TopCount NXT.
One-μL aliquots of these were then transferred to the assay mixtures above to give a final concentration of DMSO of 2%. […] For each plate, percent of control (POC) values were calculated for each well. IC50's were estimated from the POC's using a standard 4-parameter logistic model. The IC50 is defined as the concentration of inhibitor at which the POC equals 50 for the fitted curve.

[2] = read-out: PIM-2 IC50, 4 μM ATP, […] PIM-2
[3] = PIM-2 IC50 (nM), 4 μM ATP, […] PIM-2

Sequence of PIM-1 (P11309 whole entry, species assumed): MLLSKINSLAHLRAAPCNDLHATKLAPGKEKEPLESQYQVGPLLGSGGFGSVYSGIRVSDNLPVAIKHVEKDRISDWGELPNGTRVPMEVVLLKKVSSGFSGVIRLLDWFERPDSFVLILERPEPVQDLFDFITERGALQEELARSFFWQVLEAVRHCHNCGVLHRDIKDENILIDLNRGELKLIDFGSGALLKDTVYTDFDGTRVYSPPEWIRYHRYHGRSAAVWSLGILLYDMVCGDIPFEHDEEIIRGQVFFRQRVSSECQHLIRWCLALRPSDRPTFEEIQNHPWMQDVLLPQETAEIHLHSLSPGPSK

CC(C)(C)OC(=O)NCCCNc1cccc2ccc(-c3nnc4ccccn34)nc12 [Example 6, tert-Butyl 3-(2-([1,2,4]triazolo[4,3-a]pyridin-3-yl)quinolin-8-ylamino)propylcarbamate]
IC50 (PIM-1; 35 μM ATP, 0.25 nM PIM-1): 32 nM
IC50 [1, 2]: 10000 nM
IC50 (recombinant rat PIM-3; read-out: PIM-3 IC50): 155 nM

FC1CCNCCC1Oc1cccc2ccc(-c3nnc4ccccn34)nc12 (single isomer, unassigned) [Example 48, 2-([1,2,4]triazolo[4,3-a]pyridin-3-yl)-8-(5-fluoroazepan-4-yloxy)quinoline dihydrochloride]
IC50 (PIM-1; 35 μM ATP, 0.25 nM PIM-1): 0.7 nM
IC50 [1, 3]: 147 nM
IC50 (recombinant rat PIM-3; PIM-3 IC50 (nM)): 4 nM

Fc1cc(OC2CCNCCC2F)c2nc(-c3nnc4ccccn34)ccc2c1 (single isomer, unassigned) [Example 90, cis-2-([1,2,4]triazolo[4,3-a]pyridin-3-yl)-6-fluoro-8-5-fluoroazepan-4-yloxy)quinoline]
IC50 (PIM-1; 35 μM ATP, 0.25 nM PIM-1): 0.4 nM
IC50 [1, 2]: 131 nM
IC50 (recombinant rat PIM-3; read-out: PIM-3 IC50): 2 nM

c1cc(OCC2CCNCC2)c2nc(-c3nnc4ccccn34)ccc2c1 [Example 14, 2-([1,2,4]Triazolo[4,3-a]pyridin-3-yl)-8-(piperidin-4-ylmethoxy)quinoline]
IC50 (PIM-1; 35 μM ATP, 0.25 nM PIM-1): 2 nM
IC50 [1, 2]: 562 nM
IC50 (recombinant rat PIM-3; read-out: PIM-3 IC50): 11 nM

CCCC(Oc1cccc2ccc(-c3nnc4ccccn34)nc12)[C@@H](CC)CN (stereo partly drawn) [Example 34, (2S)-3-(2-([1,2,4]triazolo[4,3-a]pyridin-3-yl)quinolin-8-yloxy)-2-ethylhexan-1-amine]
IC50 (PIM-1; 35 μM ATP, 0.25 nM PIM-1): 13 nM
IC50 [1, 2]: 1350 nM
IC50 (recombinant rat PIM-3; read-out: PIM-3 IC50): 51 nM

CC[C@H](CN)C(C)Oc1cccc2ccc(-c3nnc4ccccn34)nc12 (stereo partly drawn) [Example 33, (2R)-3-(2-([1,2,4]triazolo[4,3-a]pyridin-3-yl)quinolin-8-yloxy)-2-ethylbutan-1-amine]
IC50 (PIM-1; 35 μM ATP, 0.25 nM PIM-1): 5 nM
IC50 [1, 2]: 279 nM
IC50 (recombinant rat PIM-3; read-out: PIM-3 IC50): 19 nM

FC1CCNCCC1Oc1cccc2ccc(-c3nnc4ccccn34)nc12 (single isomer, unassigned) [Example 49, 2-([1,2,4]triazolo[4,3-a]pyridin-3-yl)-8-(5-fluoroazepan-4-yloxy)quinoline dihydrochloride]
IC50 (PIM-1; 35 μM ATP, 0.25 nM PIM-1): 0.92 nM
IC50 [1, 3]: 100 nM
IC50 (recombinant rat PIM-3; PIM-3 IC50 (nM)): 2 nM

CC(C)COc1cccc2ccc(-c3nnc4cc(CN)ccn34)nc12 [Example 20, (3-(8-isobutoxyquinolin-2-yl)-[1,2,4]triazolo[4,3-a]pyridin-7-yl)methanamine]
IC50 (PIM-1; 35 μM ATP, 0.25 nM PIM-1): 2 nM
IC50 [1, 2]: 51 nM
IC50 (recombinant rat PIM-3; read-out: PIM-3 IC50): 5 nM

FC1(COc2cccc3ccc(-c4nnc5ccccn45)nc23)CCNCC1 [Example 66, 2-([1,2,4]triazolo[4,3-a]pyridin-3-yl)-8-((4-fluoropiperidin-4-yl)methoxy)quinoline dihydrochloride]
IC50 (PIM-1): 0.8 nM
IC50 ([1]; read-out: PIM-2 IC50): 52 nM
IC50 (recombinant rat PIM-3; read-out: PIM-3 IC50): 3 nM

Cc1ccn2c(-c3ccc4cccc(OC5CCNCCC5F)c4n3)nnc2c1 (single isomer, unassigned) [Example 92, cis-8-5-fluoroazepan-4-yloxy)-2-(7-methyl-[1,2,4]triazolo[4,3-a]pyridin-3-yl)quinoline]
IC50 (PIM-1; 35 μM ATP, 0.25 nM PIM-1): 1 nM
IC50 [1, 2]: 244 nM
IC50 (recombinant rat PIM-3; read-out: PIM-3 IC50): 3 nM

Fc1cc(OC2CCNCCC2F)c2nc(-c3nnc4ccccn34)ccc2c1 (single isomer, unassigned) [Example 91, trans-2-([1,2,4]triazolo[4,3-a]pyridin-3-yl)-6-fluoro-8-5-fluoroazepan-4-yloxy)quinoline]
IC50 (PIM-1; 35 μM ATP, 0.25 nM PIM-1): 0.8 nM
IC50 [1, 2]: 39 nM
IC50 (recombinant rat PIM-3; read-out: PIM-3 IC50): 0.9 nM

CN(C)C(=O)[C@@H]1C[C@@H](Oc2cccc3ccc(-c4nnc5ccccn45)nc23)CCN1 [Example 54, (2S,4S)-4-(2-([1,2,4]triazolo[4,3-a]pyridin-3-yl)quinolin-8-yloxy)-N,N-dimethylpiperidine-2-carboxamide dihydrochloride]
IC50 (PIM-1; 35 μM ATP, 0.25 nM PIM-1): 178 nM
IC50 [1, 2]: 10000 nM
IC50 (recombinant rat PIM-3; read-out: PIM-3 IC50): 465 nM

Cc1ccc2nnc(-c3ccc4cccc(OC5CCNCCC5F)c4n3)n2c1 (single isomer, unassigned) [Example 100, 8-((trans)-5-fluoroazepan-4-yloxy)-2-(6-methyl-[1,2,4]triazolo[4,3-a]pyridin-3-yl)quinoline]
IC50 (PIM-1; 35 μM ATP, 0.25 nM PIM-1): 1.5 nM
IC50 [1, 2]: 352 nM
IC50 (recombinant rat PIM-3; read-out: PIM-3 IC50): 2 nM

NCCCNc1cccc2ccc(-c3nnc4ccccn34)nc12 [Example 7, N1-(2-([1,2,4]Triazolo[4,3-a]pyridin-3-yl)quinolin-8-yl)propane-1,3-diamine]
IC50 (PIM-1; 35 μM ATP, 0.25 nM PIM-1): 5 nM
IC50 [1, 2]: 1040 nM
IC50 (recombinant rat PIM-3; read-out: PIM-3 IC50): 35 nM

c1cc(OC2CC3CCC(C2)N3)c2nc(-c3nnc4ccccn34)ccc2c1 (stereo not drawn) [Example 29, 8-(8-azabicyclo[3.2.1]octan-3-yloxy)-2-([1,2,4]triazolo[4,3-a]pyridin-3-yl)quinoline]
IC50 (PIM-1; 35 μM ATP, 0.25 nM PIM-1): 5 nM
IC50 [1, 2]: 585 nM
IC50 (recombinant rat PIM-3; read-out: PIM-3 IC50): 30 nM

FC1CNCCCC1Oc1cccc2ccc(-c3nnc4ccccn34)nc12 (stereo not drawn) [Example 51, 2-([1,2,4]triazolo[4,3-a]pyridin-3-yl)-8-(3-fluoroazepan-4-yloxy)quinoline dihydrochloride]
IC50 (PIM-1; 35 μM ATP, 0.25 nM PIM-1): 3 nM
IC50 ([1]; read-out: PIM-2 IC50): 406 nM
IC50 (recombinant rat PIM-3; read-out: PIM-3 IC50): 10 nM

c1cc(OC2CCCNCC2)c2nc(-c3nnc4ccccn34)ccc2c1 (single isomer, unassigned) [Example 128, 2-([1,2,4]triazolo[4,3-a]pyridin-3-yl)-8-(azepan-4-yloxy)quinoline]
IC50 (PIM-1; 35 μM ATP, 0.25 nM PIM-1): 19.1 nM
IC50 [1, 2]: 1000 nM
IC50 (recombinant rat PIM-3; read-out: PIM-3 IC50): 79.4 nM

CC1(COc2cccc3ccc(-c4nnc5ccccn45)nc23)CCNCC1 [Example 67, 2-([1,2,4]triazolo[4,3-a]pyridin-3-yl)-8-((4-methylpiperidin-4-yl)methoxy)quinoline dihydrochloride]
IC50 (PIM-1; 35 μM ATP, 0.25 nM PIM-1): 0.95 nM
IC50 [1, 2]: 69 nM
IC50 (recombinant rat PIM-3; read-out: PIM-3 IC50): 3 nM

OCC(O)COc1cccc2ccc(-c3nnc4ccccn34)nc12 (stereo not drawn) [Example 62, 3-(2-([1,2,4]triazolo[4,3-a]pyridin-3-yl)quinolin-8-yloxy)propane-1,2-diol]
IC50 (PIM-1; 35 μM ATP, 0.25 nM PIM-1): 34 nM
IC50 [1, 2]: 1720 nM
IC50 (recombinant rat PIM-3; read-out: PIM-3 IC50): 262 nM

CCC1(COc2cccc3ccc(-c4nnc5ccccn45)nc23)CCNCC1 [Example 68, 2-([1,2,4]triazolo[4,3-a]pyridin-3-yl)-8-((4-ethylpiperidin-4-yl)methoxy)quinoline dihydrochloride]
IC50 (PIM-1; 35 μM ATP, 0.25 nM PIM-1): 1.3 nM
IC50 [1, 2]: 126 nM
IC50 (recombinant rat PIM-3; read-out: PIM-3 IC50): 10 nM

CC(C)CCN(CCCN)c1cccc2ccc(-c3nnc4ccccn34)nc12 [Example 8, N1-(2-([1,2,4]Triazolo[4,3-a]pyridin-3-yl)quinolin-8-yl)-N1-isopentylpropane-1,3-diamine]
IC50 (PIM-1; 35 μM ATP, 0.25 nM PIM-1): 16 nM
IC50 [1, 2]: 5570 nM
IC50 (recombinant rat PIM-3; read-out: PIM-3 IC50): 93 nM

OC1(COc2cccc3ccc(-c4nnc5ccccn45)nc23)CCN(Cc2ccccc2)CC1 [Example 71, 4-((2-([1,2,4]triazolo[4,3-a]pyridin-3-yl)quinolin-8-yloxy)methyl)-1-benzylpiperidin-4-ol]
IC50 (PIM-1; 35 μM ATP, 0.25 nM PIM-1): 16 nM
IC50 [1, 2]: 10000 nM
IC50 (recombinant rat PIM-3; read-out: PIM-3 IC50): 112 nM

Cc1ccn2c(-c3ccc4cccc(OC5CCNCCC5F)c4n3)nnc2c1 (single isomer, unassigned) [Example 122, 8-((cis-4,5)-5-fluoroazepan-4-yloxy)-2-(7-methyl-[1,2,4]triazolo[4,3-a]pyridin-3-yl)quinoline]
IC50 (PIM-1; 35 μM ATP, 0.25 nM PIM-1): 17.5 nM
IC50 [1, 2]: 1000 nM
IC50 (recombinant rat PIM-3; read-out: PIM-3 IC50): 23.5 nM

c1cc(OC[C@@H]2CCCN2)c2nc(-c3nnc4ccccn34)ccc2c1 [Example 61, (S)-2-([1,2,4]triazolo[4,3-a]pyridin-3-yl)-8-(pyrrolidin-2-ylmethoxy)quinoline]
IC50 (PIM-1; 35 μM ATP, 0.25 nM PIM-1): 132 nM
IC50 [1, 2]: 10000 nM
IC50 (recombinant rat PIM-3; read-out: PIM-3 IC50): 728 nM

CC(C)(CO)COc1cccc2ccc(-c3nnc4cc(CN)ccn34)nc12 [Example 19, 3-(2-(7-(aminomethyl)-[1,2,4]triazolo[4,3-a]pyridin-3-yl)quinolin-8-yloxy)-2,2-dimethylpropan-1-ol]
IC50 (PIM-1; 35 μM ATP, 0.25 nM PIM-1): 0.7 nM
IC50 [1, 2]: 17 nM
IC50 (recombinant rat PIM-3; read-out: PIM-3 IC50): 2 nM

FC1CCNCCC1Oc1cccc2ccc(-c3nnc4ccccn34)nc12 (single isomer, unassigned) [Example 47, 2-([1,2,4]triazolo[4,3-a]pyridin-3-yl)-8-(-5-fluoroazepan-4-yloxy)quinoline dihydrochloride]
IC50 (PIM-1; 35 μM ATP, 0.25 nM PIM-1): 32 nM
IC50 [1, 3]: 1170 nM
IC50 (recombinant rat PIM-3; PIM-3 IC50 (nM)): 41 nM

FC1CCNCCC1Oc1cccc2ccc(-c3nnc4ccccn34)nc12 (single isomer, unassigned) [Example 50, 2-([1,2,4]triazolo[4,3-a]pyridin-3-yl)-8-(5-fluoroazepan-4-yloxy)quinoline dihydrochloride]
IC50 (PIM-1; 35 μM ATP, 0.25 nM PIM-1): 12 nM
IC50 [1, 3]: 290 nM
IC50 (recombinant rat PIM-3; PIM-3 IC50 (nM)): 8 nM

Cc1ccc2nnc(-c3ccc4cccc(OC5CCNCCC5F)c4n3)n2c1 (single isomer, unassigned) [Example 99, 8-((trans)-5-fluoroazepan-4-yloxy)-2-(6-methyl-[1,2,4]triazolo[4,3-a]pyridin-3-yl)quinoline dihydrochloride]
IC50 (PIM-1; 35 μM ATP, 0.25 nM PIM-1, dihydrochloride): 17.4 nM
IC50 ([1]; read-out: PIM-2 IC50, 4 μM ATP, […] PIM-2, dihydrochloride): 1000 nM
IC50 (recombinant rat PIM-3; read-out: PIM-3 IC50, dihydrochloride): 39.7 nM

OC[C@@H]1C[C@@H](Oc2cccc3ccc(-c4nnc5ccccn45)nc23)CCN1 [Example 56, ((2S,4S)-4-(2-([1,2,4]triazolo[4,3-a]pyridin-3-yl)quinolin-8-yloxy)piperidin-2-yl)methanol dihydrochloride]
IC50 (PIM-1): 9 nM
IC50 [1, 2]: 427 nM
IC50 (recombinant rat PIM-3; read-out: PIM-3 IC50): 24 nM

CCC(Oc1cccc2ccc(-c3nnc4ccccn34)nc12)[C@H](CC)CN (stereo partly drawn) [Example 31, (2R)-3-(2-([1,2,4]triazolo[4,3-a]pyridin-3-yl)quinolin-8-yloxy)-2-ethylpentan-1-amine]
IC50 (PIM-1; 35 μM ATP, 0.25 nM PIM-1): 4 nM
IC50 [1, 2]: 413 nM
IC50 (recombinant rat PIM-3; read-out: PIM-3 IC50): 19 nM
